This assay deals with T1, GABAB receptor (GABABR1a/GABABR2 heterodimer) (Homo sapiens, UniProt O75899+Q9UBS5).
T1 construct: expressed in transfected cells
The experiment in a line: [35S]-GTPγS binding assay, potency of PAM (GABA dose-response curves with and without test compound). It is filed as biochemical. To be noted: potency of the positive allosteric modulator; GABA dose-response in presence of test compound. The text has this:
GABABR1a and GABABR2 were cloned from human brain cDNA and subcloned into pCI-Neo (Promega) and pALTER-1 (Promega), respectively. A GABABR1a-Gαqi5 fusion protein expression vector was constructed using the pCI-Neo-GABABR1a cDNA plasmid and pLEC1-Gαqi5 (Molecular Devices, CA). In order to make the Gαqi5 pertussis toxin insensitive, Cys356 was mutated to Gly using standard PCR methodology with the primers 5′-[…]-3′ (forward) and 5′-GCGGCCG […]-3′ (reverse). The Gαqi5mut cDNA was ligated into the BamHI and NotI sites of pcDNA3.0 (Invitrogen). The GABAB R1a coding sequence was amplified by PCR from pCI-Neo-GABABR1a using the primers, 5′-[…]-3′ (forward) and 5′-[…]-3′ (reverse) and subcloned into the BamHI site of pcDNA3.0-Gαqi5mut.
For generation of a cell line expressing the GABABR1a/GABABR2 heterodimer, GABABR1a plasmid DNA (4 μg) GABABR2 plasmid DNA (4 μg) and lipofectamine (24 μl) were mixed in 5 ml OptiMEM and incubated for 45 minutes at room temperature. The cells were exposed to the transfection medium for 5 hours, which then was replaced with culture medium. The cells were cultured for an additional 10 days before selection agents (300 μg/ml hygromycin and 400 μg/ml geneticin) were added. Twenty-four days after transfection, single cell sorting into 96-well plates by flow cytometry was performed using a FACS Vantage SE (Becton Dickinson, Palo Alto, Calif.). After expansion, the GABAB receptor functional response was tested using the FLIPR assay described below. The clone with the highest functional response was collected, expanded and then subcloned by single cell sorting. The clonal cell line with the highest peak response in the FLIPR was used in the present study.
For generation of a stable cell line expressing GABABR1a-Gαqi5 fusion protein and GABABR2, GABABR1a-Gαqi5mut plasmid DNA (8 μg) GABABR2 plasmid DNA (8 μg) and lipofectamine (24 μl) were mixed in 5 ml OptiMEM and incubated for 45 minutes at room temperature. The cells were exposed to the transfection medium for 5 hours, which then was replaced with culture medium. After forty-eight hours, the cells were detached and seeded in 6 well plates (2000 cells/well) and grown in culture medium supplemented with geneticin (400 μg/ml) and zeocin (250 μg/ml). After 4 days, cells from single colonies were collected and transferred to a 24-well plate. After 10 days, the cell clones were seeded in T-25 flasks and grown for another 16 days before they were tested for GABAB receptor mediated functional response. […] The clonal cell line that gave the highest peak response in the FLIPR was used in the present study.
[^35S]-GTPγS binding assays were performed at 30° C. for 45 min in membrane buffer (100 mM NaCl, 5 mM MgCl2, 1 mM EDTA, 50 mM HEPES, pH 7.4) containing 0.025 μg/μl of membrane protein (prepared from the cell lines described above) with 0.01% bovine serum albumin (fatty acid free), 10 μM GDP, 10 μM DTT and 0.53 nM [^35S]-GTPγS (Amersham-Pharmacia Biotech) in a final volume of 200 μl. Non-specific binding was determined in the presence of 20 μM GTPγS. The reaction was started by the addition of GABA at concentration between 1 mM and 0.1 nM in the presence or absence of the required concentration of PAM. The reaction was terminated by addition of ice-cold wash buffer (50 mM Tris-HCl, 5 mM MgCl2, 50 mM NaCl, pH 7.4) followed by rapid filtration under vacuum through Printed Filtermat A glass fiber filters (Wallac) (0.05% PEI treated) using a Micro 96 Harvester (Skatron Instruments). The filters were dried for 30 min at 50° C., then a paraffin scintillant pad was melted onto the filters and the bound radioactivity was determined using a 1450 Microbeta Trilux (Wallac) scintillation counter.
GABA dose-response curves in the presence and absence of test compounds were constructed using the 4-parameter logistic equation, y=ymax+((ymin−ymax)/1+(x/C)^D), where C=EC50 and D=slope factor.

T1 sequence (Q9UBS5 15-961 limits assumed): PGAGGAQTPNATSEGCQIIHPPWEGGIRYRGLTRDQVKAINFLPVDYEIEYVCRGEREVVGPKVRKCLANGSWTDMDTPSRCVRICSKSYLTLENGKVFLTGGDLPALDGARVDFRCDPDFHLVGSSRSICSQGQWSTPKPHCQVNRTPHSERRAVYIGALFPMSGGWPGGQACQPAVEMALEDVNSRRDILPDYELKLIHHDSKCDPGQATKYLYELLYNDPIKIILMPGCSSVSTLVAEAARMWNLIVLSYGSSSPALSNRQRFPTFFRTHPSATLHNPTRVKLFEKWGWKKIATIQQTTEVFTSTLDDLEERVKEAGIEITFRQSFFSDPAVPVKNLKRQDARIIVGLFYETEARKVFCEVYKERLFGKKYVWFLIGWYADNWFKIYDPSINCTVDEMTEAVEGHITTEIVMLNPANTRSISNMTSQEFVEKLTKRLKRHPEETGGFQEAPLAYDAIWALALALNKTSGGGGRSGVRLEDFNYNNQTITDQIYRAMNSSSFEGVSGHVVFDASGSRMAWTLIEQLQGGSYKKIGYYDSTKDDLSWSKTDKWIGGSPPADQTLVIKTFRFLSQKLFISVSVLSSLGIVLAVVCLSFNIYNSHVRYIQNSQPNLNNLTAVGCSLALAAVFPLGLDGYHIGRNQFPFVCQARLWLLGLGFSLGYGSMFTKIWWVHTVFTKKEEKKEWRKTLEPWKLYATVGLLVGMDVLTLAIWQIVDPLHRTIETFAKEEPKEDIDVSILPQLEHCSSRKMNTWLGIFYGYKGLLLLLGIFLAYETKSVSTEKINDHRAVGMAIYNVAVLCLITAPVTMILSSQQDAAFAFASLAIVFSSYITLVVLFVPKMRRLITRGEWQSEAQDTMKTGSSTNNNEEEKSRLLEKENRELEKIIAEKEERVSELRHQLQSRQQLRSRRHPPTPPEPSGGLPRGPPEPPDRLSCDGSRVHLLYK
T1 sequence (O75899 42-941): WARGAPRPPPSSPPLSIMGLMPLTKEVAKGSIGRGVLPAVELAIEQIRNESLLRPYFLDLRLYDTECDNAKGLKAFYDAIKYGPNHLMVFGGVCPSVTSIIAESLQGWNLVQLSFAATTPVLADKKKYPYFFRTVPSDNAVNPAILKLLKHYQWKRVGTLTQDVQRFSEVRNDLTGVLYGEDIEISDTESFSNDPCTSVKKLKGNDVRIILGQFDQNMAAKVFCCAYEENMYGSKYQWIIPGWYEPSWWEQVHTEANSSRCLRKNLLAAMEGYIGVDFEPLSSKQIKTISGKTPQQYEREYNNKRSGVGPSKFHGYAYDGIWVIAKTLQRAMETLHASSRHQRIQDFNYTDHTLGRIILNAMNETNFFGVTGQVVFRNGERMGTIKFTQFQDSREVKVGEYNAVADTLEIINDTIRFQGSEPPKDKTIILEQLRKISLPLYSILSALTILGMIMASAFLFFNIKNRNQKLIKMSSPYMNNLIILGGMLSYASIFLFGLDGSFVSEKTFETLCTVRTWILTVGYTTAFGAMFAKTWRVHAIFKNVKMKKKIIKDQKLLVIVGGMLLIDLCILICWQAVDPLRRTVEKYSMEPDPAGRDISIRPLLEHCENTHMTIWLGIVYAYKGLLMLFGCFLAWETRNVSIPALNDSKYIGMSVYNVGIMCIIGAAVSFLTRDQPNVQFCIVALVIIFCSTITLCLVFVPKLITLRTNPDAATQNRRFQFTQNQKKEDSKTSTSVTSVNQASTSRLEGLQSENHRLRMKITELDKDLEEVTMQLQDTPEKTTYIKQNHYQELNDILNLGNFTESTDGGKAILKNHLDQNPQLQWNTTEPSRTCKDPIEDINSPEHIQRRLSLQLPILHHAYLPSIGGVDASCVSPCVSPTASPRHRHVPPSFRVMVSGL

In the case of `CCc1nc2c(c(=O)n(Cc3ccc(Cl)cc3)c(=O)n2Cc2cc(C)on2)n1C` [Example 16, 1-(4-Chlorobenzyl)-8-ethyl-7-methyl-3-[(5-methylisoxazol-3-yl)methyl]-3,7-dihydro-1H-purine-2,6-dione], the EC50 – broadly, the concentration at which the effect is half-maximal – amounted to 6.8 µM. Take `CCCn1c(=O)n(Cc2ccc(Cl)cc2)c(=O)c2c1nc(N1CCSCC1)n2C` [Example 88, 1-(4-chlorobenzyl)-7-methyl-3-propyl-8-thiomorpholin-4-yl-3,7-dihydro-1H-purine-2,6-dione]: the EC50 came to 3.7 µM. As for `CCCn1c(=O)n(Cc2ccc(Cl)cc2)c(=O)c2c1nc(N1CCC[C@H]1COC)n2C` [Example 93, 1-(4-chlorobenzyl)-8-[(2S)-2-(methoxymethyl)pyrrolidin-1-yl]-7-methyl-3-propyl-3,7-dihydro-1H-purine-2,6-dione], the figure is 7.2 µM; as for `CCCn1c(=O)n(Cc2ccc(Cl)cc2)c(=O)c2c1nc(CC)n2C` [Example 54, 1-(4-chlorobenzyl)-8-ethyl-7-methyl-3-propyl-3,7-dihydro-1H-purine-2,6-dione], 5.89 µM. As for `CCCn1c(=O)n(Cc2ccc3ccccc3c2)c(=O)c2c1nc(CC)n2C` [Example 58, 8-Ethyl-7-methyl-1-(2-naphthylmethyl)-3-propyl-3,7-dihydro-1H-purine-2,6-dione], the figure is 2.7 µM. The value for `CCc1nc2c(c(=O)n(Cc3ccc(Cl)cc3)c(=O)n2CC(=O)c2ccncc2)n1C` [Example 7, 1-(4-Chlorobenzyl)-8-ethyl-7-methyl-3-(2-oxo-2-pyridin-4-ylethyl)-3,7-dihydro-1H-purine-2,6-dione] was 7.9 µM; that for `CCc1nc2c(c(=O)n(Cc3ccc(Cl)cc3)c(=O)n2CCCN2CCCC2)n1C` [Example 46, 1-(4-chlorobenzyl)-8-ethyl-7-methyl-3-(3-pyrrolidin-1-ylpropyl)-3,7-dihydro-1H-purine-2,6-dione] was 16.9 µM; that for `CCCn1c(=O)n(Cc2ccc(C(F)(F)F)cc2)c(=O)c2c1nc(CC)n2C` [Example 62, 8-Ethyl-7-methyl-3-propyl-1-[4-(trifluoromethyl)benzyl]-3,7-dihydro-1H-purine-2,6-dione] was 5.7 µM.

As for `CCCn1c(=O)n(Cc2ccc(Cl)cc2)c(=O)c2c1nc(N1CCOCC1)n2C` [Example 92, 1-(4-chlorobenzyl)-7-methyl-8-morpholin-4-yl-3-propyl-3,7-dihydro-1H-purine-2,6-dione], the EC50 worked out at 7.1 µM.

For `COc1nc2c(c(=O)n(Cc3ccc(Cl)cc3)c(=O)n2CCC(F)(F)F)n1C` [Example 80, 1-(4-chlorobenzyl)-8-methoxy-7-methyl-3-(3,3,3-trifluoropropyl)-3,7-dihydro-1H-purine-2,6-dione], the EC50 turned out to be 5.2 µM. The value for `CCCn1c(=O)n(Cc2ccc(C(C)C)cc2)c(=O)c2c1nc(CC)n2C` [Example 70, 8-Ethyl-1-(4-isopropylbenzyl)-7-methyl-3-propyl-3,7-dihydro-1H-purine-2,6-dione] was 6.1 µM; that for `CCc1nc2c(c(=O)n(Cc3ccc(Cl)cc3)c(=O)n2CCCO)n1C` [Example 38, 1-(4-chlorobenzyl)-8-ethyl-3-(3-hydroxypropyl)-7-methyl-3,7-dihydro-1H-purine-2,6-dione] was 6.8 µM. As for `COc1nc2c(c(=O)n(Cc3ccc(Cl)cc3)c(=O)n2CCCC(F)(F)F)n1C` [Example 81, 1-(4-chlorobenzyl)-8-methoxy-7-methyl-3-(4,4,4-trifluorobutyl)-3,7-dihydro-1H-purine-2,6-dione], the figure is 11.5 µM; as for `CCc1nc2c(c(=O)n(Cc3ccc(Cl)c(Cl)c3)c(=O)n2CCC(C)(C)C)n1C` [Example 41, 1-(3,4-Dichlorobenzyl)-3-(3,3-dimethylbutyl)-8-ethyl-7-methyl-3,7-dihydro-1H-purine-2,6-dione], 2 µM; as for `CCCn1c(=O)n(Cc2ccc(Cl)cc2)c(=O)c2c1nc(N(C)CCOC)n2C` [Example 91, 1-(4-chlorobenzyl)-8-[(2-methoxyethyl)(methyl)amino]-7-methyl-3-propyl-3,7-dihydro-1H-purine-2,6-dione], 8.3 µM. As for `C=CCn1c(=O)n(Cc2ccc(Cl)cc2)c(=O)c2c1nc(CC)n2C` [Example 12, 3-Allyl-1-(4-chlorobenzyl)-8-ethyl-7-methyl-3,7-dihydro-1H-purine-2,6-dione], the figure is 6 µM. As for `CCc1nc2c(c(=O)n(Cc3ccc(Cl)cc3)c(=O)n2CCCN2CCN(c3ccccc3)CC2)n1C` [Example 47, 1-(4-Chlorobenzyl)-8-ethyl-7-methyl-3-[3-(4-phenylpiperazin-1-yl)propyl]-3,7-dihydro-1H-purine-2,6-dione], the EC50 was determined as 8.7 µM. As for `CCc1nc2c(c(=O)n(Cc3ccc(Cl)cc3)c(=O)n2CC(=O)c2ccccc2)n1C` [Example 28, 1-(4-chlorobenzyl)-8-ethyl-7-methyl-3-(2-oxo-2-phenylethyl)-3,7-dihydro-1H-purine-2,6-dione], the figure is 2.6 µM; as for `CCCn1c(=O)n(Cc2ccc(Cl)cc2)c(=O)c2c1nc(N1CCC1)n2C` [Example 83, 8-azetidin-1-yl-1-(4-chlorobenzyl)-7-methyl-3-propyl-3,7-dihydro-1H-purine-2,6-dione], 7.8 µM. The value for `CCc1nc2c(c(=O)n(Cc3ccc(Cl)cc3)c(=O)n2Cc2cccnc2)n1C` [Example 18, 1-(4-Chlorobenzyl)-8-ethyl-7-methyl-3-(pyridin-3-ylmethyl)-3,7-dihydro-1H-purine-2,6-dione] was 3.3 µM. The value for `CCCn1c(=O)n(Cc2ccc(Cl)cc2)c(=O)c2c1nc(N1CCCC1)n2C` [Example 86, 1-(4-chlorobenzyl)-7-methyl-3-propyl-8-pyrrolidin-1-yl-3,7-dihydro-1H-purine-2,6-dione] was 3.6 µM; that for `CCc1nc2c(c(=O)n(Cc3ccc(Cl)cc3)c(=O)n2CCCn2ccnc2)n1C` [Example 49, 1-(4-Chlorobenzyl)-8-ethyl-3-[3-(1H-imidazol-1-yl)propyl]-7-methyl-3,7-dihydro-1H-purine-2,6-dione] was 13.4 µM. Take `CCc1nc2c(c(=O)n(Cc3ccc(Cl)cc3)c(=O)n2Cc2ccc(SC(F)(F)F)cc2)n1C` [Example 25, 1-(4-chlorobenzyl)-8-ethyl-7-methyl-3-{4-[(trifluoromethyl)thio]benzyl}-3,7-dihydro-1H-purine-2,6-dione]: the EC50 came to 5.3 µM. The value for `CCCn1c(=O)n(Cc2ccc(Br)cc2)c(=O)c2c1nc(CC)n2C` [Example 61, 1-(4-Bromobenzyl)-8-ethyl-7-methyl-3-propyl-3,7-dihydro-1H-purine-2,6-dione] was 4.2 µM; that for `CCc1nc2c(c(=O)n(Cc3ccc(Cl)cc3)c(=O)n2C[C@@H]2CCC(=O)N2)n1C` [Example 10, 1-(4-Chlorobenzyl)-8-ethyl-7-methyl-3-{[(2S)-5-oxopyrrolidin-2-yl]methyl}-3,7-dihydro-1H-purine-2,6-dione] was 14.6 µM. In the case of `CCc1nc2c(c(=O)n(Cc3ccc(Cl)cc3)c(=O)n2CCn2cccc2)n1C` [Example 37, 1-(4-chlorobenzyl)-8-ethyl-7-methyl-3-[2-(1H-pyrrol-1-yl)ethyl]-3,7-dihydro-1H-purine-2,6-dione], the EC50 turned out to be 1.7 µM. As for `CCc1nc2c(c(=O)n(Cc3ccc(Cl)cc3)c(=O)n2CCCC(F)(F)F)n1C` [Example 76], the figure is 4.9 µM.

For the origin of these results see US20090023704A1, “Novel Compounds 737” (ASTRAZENECA AB, priority 2007, published 2009).
